Measured values from the NIST ThermoML archive (doi:10.1021/je0496950).
Values joined by “and” are separate entries in the source; they are usually repeats but may differ in a detail not shown here. Identical values can stand only once.

Assays:
[1] = mn = molality of the nth substance listed, in mol/kg; details: 101 kPa, Liquid; for speed of sound: Pulse-echo method
[2] = 101 kPa, Liquid

[Co+2].[O-][Cl+3]([O-])([O-])[O-].[O-][Cl+3]([O-])([O-])[O-] [cobalt(II) perchlorate] + CC#N
[1]
Details	mass density, 288.13 K [kg/m3]	mass density, 293.15 K [kg/m3]	mass density, 298.15 K [kg/m3]	mass density, 303.15 K [kg/m3]	mass density, 308.15 K [kg/m3]	mass density, 313.15 K [kg/m3]	mass density, 323.15 K [kg/m3]	speed of sound, 298.15 K [m/s]
m1 = 0.0631	799.771	794.418	789.05	783.653	778.228	772.771	761.76	–
m1 = 0.06311	–	–	–	–	–	–	–	1282.4
m1 = 0.1115	809.436	804.1	798.743	793.363	787.958	782.523	771.558	1285.1
m1 = 0.1477	816.764	811.44	806.094	800.726	795.334	789.913	778.975	1287
m1 = 0.1815	823.65	818.333	812.996	807.639	802.256	796.848	785.942	1289
m1 = 0.2169	831.031	825.723	820.399	815.051	809.685	804.289	793.42	1290.7
m1 = 0.2496	837.824	832.525	827.21	821.873	816.516	811.134	800.293	1292.6
m1 = 0.2829	844.904	839.613	834.306	828.983	823.636	818.267	807.451	1294.5
m1 = 0.3172	852.306	847.023	841.727	836.41	831.074	825.719	814.932	1296.4
m1 = 0.3491	859.24	853.965	848.675	843.372	838.048	832.702	821.94	1298.2

CC#N [acetonitrile] + [Mn+2].[O-][Cl+3]([O-])([O-])[O-].[O-][Cl+3]([O-])([O-])[O-]
[1], m2 = 0
Details	mass density [kg/m3]
288.15 K	787.308
293.15 K	781.932
298.15 K	776.531
303.15 K	771.102
308.15 K	765.645
313.15 K	760.156
323.15 K	749.07

[O-][Cl+3]([O-])([O-])[O-].[O-][Cl+3]([O-])([O-])[O-].[Zn+2] [zinc perchlorate] + CC#N
[1]
Details	mass density, 288.13 K [kg/m3]	mass density, 293.15 K [kg/m3]	mass density, 298.15 K [kg/m3]	mass density, 303.15 K [kg/m3]	mass density, 308.15 K [kg/m3]	mass density, 313.15 K [kg/m3]	mass density, 323.15 K [kg/m3]	speed of sound, 298.15 K [m/s]
m1 = 0.05169	797.728	792.369	786.992	781.587	776.154	770.69	759.656	1280.2
m1 = 0.09336	806.167	800.821	795.456	790.063	784.645	779.192	768.19	1281.9
m1 = 0.1233	812.307	806.971	801.611	796.227	790.815	785.374	774.39	1283.1
m1 = 0.1524	818.329	812.997	807.644	802.268	796.864	791.433	780.466	1284.2
m1 = 0.1817	824.45	819.125	813.78	808.412	803.019	797.595	786.657	1285.4
m1 = 0.2106	830.536	825.218	819.877	814.514	809.128	803.712	792.788	1286.8
m1 = 0.2379	836.415	831.101	825.768	820.412	815.033	809.624	798.715	1287.9
m1 = 0.2668	842.682	837.373	832.046	826.696	821.325	815.925	805.037	1289
m1 = 0.2944	848.641	843.338	838.017	832.675	827.308	821.916	811.045	1290.3

CC#N [acetonitrile]
[2]
Details	mass density
288.13 K	787.307 kg/m3 and 787.308 kg/m3 and 787.312 kg/m3
288.15 K	787.308 kg/m3
293.15 K	781.933 kg/m3 [middle of 4 runs]
298.15 K	776.532 kg/m3 [middle of 4 runs]
303.15 K	771.106 kg/m3 [middle of 4 runs]
308.15 K	765.645 kg/m3 and 765.664 kg/m3 and 765.649 kg/m3
313.15 K	760.158 kg/m3 [middle of 4 runs]
323.15 K	749.07 kg/m3 [middle of 4 runs]

[Ni+2].[O-][Cl+3]([O-])([O-])[O-].[O-][Cl+3]([O-])([O-])[O-] [nickel perchlorate] + CC#N
[1]
Details	mass density, 288.13 K [kg/m3]	mass density, 293.15 K [kg/m3]	mass density, 298.15 K [kg/m3]	mass density, 303.15 K [kg/m3]	mass density, 308.15 K [kg/m3]	mass density, 313.15 K [kg/m3]	mass density, 323.15 K [kg/m3]	speed of sound, 298.15 K [m/s]
m1 = 0.0492	797.088	791.73	786.35	780.945	775.512	770.049	759.023	–
m1 = 0.04923	–	–	–	–	–	–	–	1281.8
m1 = 0.08198	–	–	–	–	–	–	–	1284
m1 = 0.082	803.621	798.268	792.896	787.511	782.087	776.641	765.646	–
m1 = 0.1087	809.018	803.673	798.312	792.927	787.516	782.077	771.11	1285.8
m1 = 0.135	814.36	809.021	803.671	798.291	792.889	787.46	776.511	1287.5
m1 = 0.1611	819.735	814.406	809.058	803.686	798.299	792.88	781.957	1289.4
m1 = 0.1844	824.54	819.217	813.878	808.519	803.134	797.731	786.838	1290.9
m1 = 0.2114	830.147	824.83	819.495	814.141	808.766	803.366	792.486	1292.7
m1 = 0.2353	835.248	829.938	824.608	819.261	813.893	808.502	797.637	1294.1
m1 = 0.2607	840.618	835.309	829.987	824.647	819.287	813.905	803.067	1295.8
